{"source": "patent US4746349A", "about": "“Method and compositions for suppressing the nitrification of ammonium in plant growth medium” (American Cyanamid Company, priority 1986, dated 1988)", "key": {"[1]": {"tested_on": "corn (Dekalb T2000, B73×LH 38)", "assay": "Field evaluation: corn ear leaf tissue nitrogen, silt loam plots", "format": "in vivo", "conditions": "inhibitor 0.11 kg/ha, ear leaf at silking"}, "Urease": {"tested_on": "Urease", "assay": "Urease activity of urea amended soil, 38° C., 24 hrs", "format": "biochemical", "protocol": "Urease activity: Five grams (5 g) oven-dry soil is treated with 5 ml of aqueous urea solution (1000 ug/g soil), with or without the test compound, and incubated in 65 ml screw-capped glass bottles at 38° C. for 24 hrs. Three replicates of each treatment are established. Phenylphosphorodiamide (PPD) is used as a urease inhibitor for comparison with Maduramicin monoammonium salt. Urea remaining is determined after extracting the soil for 60 minutes (with shaking) with 50 ml of 2M KCl containing 0.5 ug/ml of phenylmercuric acetate and filtering the soil suspension. Urea in the extract is determined colorimetrically (Douglas & Bremner, 1970). The percentage inhibition is calculated from (A-B)/(C-B) X 100-% inhibition; where A=the amount of urea found after incubation with the compound, B=the amount of urea found in the non-treated soil, and C=the amount of urea added."}, "[2]": {"tested_on": "corn (Dekalb T2000, B73×LH 38)", "assay": "Field evaluation: yield of corn, silt loam location", "format": "in vivo", "text": "(§1) Field Evaluation: Field evaluations are based on the N content of corn leaf tissue and grain yield utilizing two soil types. Replicate (4X) field plots are established at two different locations, one having (I) silt loam soil and one (II) with sandy loam soil. These soils had been previously cropped to non-fertilized corn to reduce the level of residual N. Maduramicin monoammonium salt is applied (0.25, 0.125, 0.07 ppm) with NH3 (84 or 168 kg N/ha) through a \"downstream\" by an injection system into silt loam plots. Nitrapyrin (0.25 ppm=0.56 kg a.i./ha), nitrogen checks, benzyl alcohol (1.16L/ha) (BA) and a O nitrogen check are included for comparison. Individual replicate plot sizes are 3.04M×22.8M (4, 76-cm corn rows×22.8M long) Anhydrous ammonia are injected on 76-cm centers.\n(§2) Urea, treated or non-treated with Maduramicin monoammonium salt is broadcast on the surface of sandy loam plots. Plots are then planted with corn the day following treatment. Dekalb T2000 is planted 10 May on silt loam plots and Pioneer 3352 is planted 11 May in sandy loam plots.\n(§3) Corn ear leaf tissues collected at silking on silt loam plots or 60 days post silking (on silt loam and sandy loam plots) are collected from each plot and assayed for total N (AOAC procedures). Grain yields are determined by harvesting the two center rows×15.2 m of each plot."}, "Nitrosomonos": {"tested_on": "Nitrosomonos", "assay": "Nitrification of ammonium amended field soil incubated at 38° C. (ammonium recovery, nitrate)", "conditions": "soil 38° C.; for Ammonium Recovery, reported as nitrogen / Nitrate, reported as nitrogen: 0.50 ppm, 200 ppm N", "protocol": "Determination of Nitrification Inhibition of Soil amended with 200 ppm of nitrogen as ammonium sulfate and 0.5 ppm of Nitrapyrin or 0.5 ppm of Maduramicin, monoammonium salt.\nSoil samples prepared as described in Example 1 above are incubated at 38° C. for 20 weeks. Samples are taken at intervals during the 20 week period, extracted with 2M KCl (10:1 v/w), and assayed for ammonium nitrite and nitrate by standard steam distillation methods."}, "[3]": {"tested_on": "corn (Dekalb T2000, B73×LH 38)", "assay": "Field evaluation: corn ear leaf tissue nitrogen, silt loam plots", "format": "in vivo", "conditions": "for Corn Leaf Tissue Analysis (total N): ear leaf at silking", "text": "as §1, §2, §3"}}, "note": "Where “and” joins values, the source holds several entries; their conditions need not be identical. Equal values may be shown once. Where a name gives a salt, the structure may show the parent alone."}
{"smiles": "CO[C@@H]1[C@@H](OC)[C@H](C)[C@@](O)(CC(=O)O)O[C@H]1[C@H](C)[C@H]1O[C@@]2(CC[C@@](C)([C@H]3CC[C@@](C)([C@@H]4O[C@@H]([C@H]5O[C@](C)(O)[C@H](C)C[C@@H]5C)C[C@@H]4O[C@@H]4C[C@H](OC)[C@@H](OC)[C@H](C)O4)O3)O2)C[C@H](O)[C@H]1C", "note": "[Maduramicin monoammonium salt, Maduramicin]", "values": [{"measurement": "Corn Leaf Tissue Analysis (total N)", "setting": "[1]; NH3 84 kg N/ha", "value": "257 10^2 ug/g"}, {"measurement": "Corn Leaf Tissue Analysis (total N)", "setting": "[1]; NH3 168 kg N/ha", "value": "268 10^2 ug/g"}, {"measurement": "% INHIBITION (urease)", "setting": "Urease; (A-B)/(C-B) X 100, urea 1000 ug/g soil", "value": 16, "unit": "%"}, {"measurement": "AVERAGE amount of urea remaining", "setting": "Urease; average of 3 replicates, urea 1000 ug/g soil", "value": 483, "unit": "µg/g"}, {"measurement": "AMOUNT REMAINING (urea)", "setting": "Urease; single replicates, urea 1000 ug/g soil", "value": "492 µg/g and 477 µg/g"}, {"measurement": "AVERAGE YIELD 4-REPLICATES", "setting": "[2]; N 84 kg/ha, chemical 0.11 kg/ha", "value": 136.6, "unit": "HECTOLITERS/HECTARE"}, {"measurement": "AVERAGE YIELD 4-REPLICATES", "setting": "[2]; N 84 kg/ha, chemical 0.28 kg/ha", "value": 129.6, "unit": "HECTOLITERS/HECTARE"}, {"measurement": "AVERAGE YIELD 4-REPLICATES", "setting": "[2]; N 84 kg/ha, chemical 0.56 kg/ha", "value": 131.4, "unit": "HECTOLITERS/HECTARE"}, {"measurement": "AVERAGE YIELD 4-REPLICATES", "setting": "[2]; N 168 kg/ha, chemical 0.11 kg/ha", "value": 154.0, "unit": "HECTOLITERS/HECTARE"}, {"measurement": "AVERAGE YIELD 4-REPLICATES", "setting": "[2]; N 168 kg/ha, chemical 0.28 kg/ha", "value": 146.2, "unit": "HECTOLITERS/HECTARE"}, {"measurement": "AVERAGE YIELD 4-REPLICATES", "setting": "[2]; N 168 kg/ha, chemical 0.56 kg/ha", "value": 147.9, "unit": "HECTOLITERS/HECTARE"}, {"measurement": "Activity against Nitrosomonos, in words", "setting": "Nitrosomonos; 0.5 ppm", "value": "good activity"}, {"measurement": "Nitrification inhibition compared with nitrapyrin, in words", "setting": "Nitrosomonos; 0.5 ppm, 20 weeks", "value": "slightly better than that obtained with nitrapyrin"}, {"measurement": "Ammonium Recovery, reported as nitrogen", "setting": "Nitrosomonos; week 0", "value": 193, "unit": "ppm"}, {"measurement": "Nitrate, reported as nitrogen", "setting": "Nitrosomonos; week 0", "value": 18, "unit": "ppm"}, {"measurement": "Ammonium Recovery, reported as nitrogen", "setting": "Nitrosomonos; week 1", "value": 178, "unit": "ppm"}, {"measurement": "Nitrate, reported as nitrogen", "setting": "Nitrosomonos; week 1", "value": 20, "unit": "ppm"}, {"measurement": "Ammonium Recovery, reported as nitrogen", "setting": "Nitrosomonos; week 2", "value": 193, "unit": "ppm"}, {"measurement": "Nitrate, reported as nitrogen", "setting": "Nitrosomonos; week 2", "value": 17, "unit": "ppm"}, {"measurement": "Ammonium Recovery, reported as nitrogen", "setting": "Nitrosomonos; week 4", "value": 199, "unit": "ppm"}, {"measurement": "Nitrate, reported as nitrogen", "setting": "Nitrosomonos; week 4", "value": 9, "unit": "ppm"}, {"measurement": "Ammonium Recovery, reported as nitrogen", "setting": "Nitrosomonos; week 7", "value": 208, "unit": "ppm"}, {"measurement": "Nitrate, reported as nitrogen", "setting": "Nitrosomonos; week 7", "value": 15, "unit": "ppm"}, {"measurement": "Ammonium Recovery, reported as nitrogen", "setting": "Nitrosomonos; week 9", "value": 168, "unit": "ppm"}, {"measurement": "Nitrate, reported as nitrogen", "setting": "Nitrosomonos; week 9", "value": 52, "unit": "ppm"}, {"measurement": "Ammonium Recovery, reported as nitrogen", "setting": "Nitrosomonos; week 12", "value": 154, "unit": "ppm"}, {"measurement": "Nitrate, reported as nitrogen", "setting": "Nitrosomonos; week 12", "value": 76, "unit": "ppm"}, {"measurement": "Ammonium Recovery, reported as nitrogen", "setting": "Nitrosomonos; week 16", "value": 129, "unit": "ppm"}, {"measurement": "Nitrate, reported as nitrogen", "setting": "Nitrosomonos; week 16", "value": 112, "unit": "ppm"}, {"measurement": "Ammonium Recovery, reported as nitrogen", "setting": "Nitrosomonos; week 20", "value": 95, "unit": "ppm"}, {"measurement": "Nitrate, reported as nitrogen", "setting": "Nitrosomonos; week 20", "value": 111, "unit": "ppm"}, {"measurement": "Corn Leaf Tissue Analysis (total N)", "setting": "[3]; inhibitor 0.28 kg/ha, NH3 84 kg N/ha", "value": "256 10^2 ug/g"}, {"measurement": "Corn Leaf Tissue Analysis (total N)", "setting": "[3]; inhibitor 0.28 kg/ha, NH3 168 kg N/ha", "value": "275 10^2 ug/g"}, {"measurement": "Corn Leaf Tissue Analysis (total N)", "setting": "[3]; inhibitor 0.56 kg/ha, NH3 84 kg N/ha", "value": "258 10^2 ug/g"}, {"measurement": "Corn Leaf Tissue Analysis (total N)", "setting": "[3]; inhibitor 0.56 kg/ha, NH3 168 kg N/ha", "value": "281 10^2 ug/g"}, {"measurement": "More nitrogen in leaf tissue than control plots with similar nitrogen", "setting": "[3]; silt loam plots", "value": "15-25%"}, {"measurement": "Tissue N compared with nitrapyrin-treated plants, in words", "setting": "[3]; three rates, silt loam plots", "value": "slightly higher than nitrapyrin-treated plants"}]}
